Test results reported in patent publication US4277479A, “Tetrazolylalkoxycarbostyril derivatives and pharmaceutical compositions containing them” (Otsuka Pharmaceutical Co., Ltd., priority 1978, dated 1981).

How the values were obtained:
[1] = test system: rabbit platelet (collagen-induced aggregation); assay: Platelet aggregation inhibitory effect, collagen-induced aggregation in rabbit platelet; format: cell-based; details: Oryctolagus cuniculus, read-out: Inhibition effect on collagen-induced aggregation in rabbit platelet; for inhibition at 100 µM: concentration of the test compound solution 10^-4 mole; for inhibition at 10 µM: concentration of the test compound solution 10^-5 mole; for inhibition at 1 µM: concentration of the test compound solution 10^-6 mole
Excerpt: The blood sample used for the test is a 1/9 (by volume) mixture of sodium citrate and whole blood collected from rabbit. Said sample is subjected to 10-minute centrifugal separation at 1,000 r.p.m. to obtain a platelet rich plasma (PRP). The thus obtained PRP is separated, and the remaining blood sample is further subjected to 15-minute centrifugal separation at 3,000 r.p.m. to obtain a platelet poor plasma (PPP).
The number of platelets in the PRP is counted by the Brecher-Clonkite Method, and the PRP is diluted with the PPP to prepare a PRP sample with platelet concentration of 300,000/mm^3 for the adenosine diphosphate (ADP)-induced aggregation test. There is also prepared a PRP sample with platelet concentration of 450,000/mm^3 for the collagen-induced aggregation test.
0.6 Ml of said PRP sample is added into 0.01 ml of a solution of a test compound of a predetermined concentration and the mixture is placed in a 37° C. thermostat for one minute. Then 0.07 ml of an ADP or collagen solution is added to the mixture. Transmittance of this mixture is determined and the change of transmittance is recorded by using the aggregometer at stirrer speed of 1,100 r.p.m. […] ADP is adjusted to a concentration of 7.5×10^-5 M, and the collagen solution is prepared by triturating 100 mg of collagen with 5 ml of said buffer and the supernatant is used as collagen inducer. Adenosine and acetylsalicylic acid are used as controls for the ADP-induced aggregation test and the collagen-induced aggregation test, respectively. The platelet aggregation inhibitory effect is measured in terms of percent inhibition with respect to the aggregation rate of the controls. The aggregation rate is calculated from the following formula: [formula] wherein a: transmittance of PRP
b: transmittance of PRP containing a test compound and an aggregation inducer
The compounds tested are as follows.

[2] = test system: cerebral blood flow, bastard dog; assay: Increasing effect of cerebral blood flow in anesthetized dog; format: in vivo; details: Canis lupus familiaris, iv, through profunda femoris vein, dog; for change in vivo at 0.3 mg/kg: dosage 300 μg/kg
Protocol: (Test of increasing effect of cerebral blood flow)
Thus, a bastard dog (male, 12-20 kg of body weight) was fixed in a prone (position) and was anesthetized with […] of pentobarbital sodium and forced to breathe at a frequency of respiration of 20 times/minute. Then, the skull was bared and the surface bone was removed to expose the venous sinus by using a grinder and the venous blood was taken out from the venas which was cannulizated. The amount of venous blood flow was measured by using an electromagnetic blood flow meter and next measured by using drop-counter to measure the number of drops of blood per 10 seconds.
The increasing effect of cerebral blood flow was calculated by comparing the number of blood drops in 30 seconds at the peak of increasement shown before and after the administration of compound to be tested. Each of the compounds to be tested was dissolved in dimethylformamide and diluted with physiological saline solution and administered through a cannule being inserted into the profunda femoris vein.

Acute toxicity test = details: mouse, in vivo; male mice, oral administration
Protocol: The test compounds were administered orally to the mice and LD50 (mg/kg) of the compounds was determined.

SMILES | inhibition at 100 µM [1] [%] | inhibition at 10 µM [1] [%] | inhibition at 1 µM [1] [%] | change in vivo at 0.03 mg/kg ([2]; dosage 30 μg/kg) [%] | change in vivo at 0.3 mg/kg [2] [%] | LD50 (Acute toxicity test) [mg/kg]
O=c1ccc2cc(OCCCc3nnnn3C3CCCCC3)ccc2[nH]1 [Compound 1, 6-[3-(1-Cyclohexyltetrazol-5-yl)propoxy]carbostyril] | 100 | 100 | 25.9 | 36.9 | 72.2 | > 1000
O=c1ccc2cc(OCCCc3nnnn3CC3CCCCC3)ccc2[nH]1 [Compound 5, 6-[3-(1-Cyclohexylmethyltetrazol-5-yl)propoxy]carbostyril] | 100 | 100 | 24.7 |  | 71 | > 1000
O=c1ccc2cc(OCCCc3nnnn3C3CCCCCCC3)ccc2[nH]1 [Compound 6, 6-[3-(1-Cyclooctyltetrazol-5-yl)propoxy]carbostyril] | 100 | 100 | 27.4 |  | 75.3 | > 1000
O=c1ccc2cc(OCCCCc3nnnn3C3CCCCC3)ccc2[nH]1 [Compound 7, 6-[4-(1-Cyclohexyltetrazol-5-yl)butoxy]carbostyril] | 100 | 100 | 26.8 |  | 68.4 | > 1000
